Literature values as cited in US20040116514A1, “Compositions for preventing human cancer and method of preventing human cancer” (priority 2002, published 2004).

Tested on: humans
Conditions: β-carotene alone administered in large quantities to humans (Omenn et al., 1996)

SMILES: CC1=C(/C=C/C(C)=C/C=C/C(C)=C/C=C/C=C(C)/C=C/C=C(C)/C=C/C2=C(C)CCCC2(C)C)C(C)(C)CCC1 [β-carotene]
- incidence rate of pulmonary cancer: actually rises
